Results on 3 molecules are retold here after PMC6248945, “Antibacterial properties of the pituitary adenylate cyclase-activating polypeptide: A new human antimicrobial peptide” (PLoS ONE, 2018).

In one data set the test system is CHO-K1. Conditions: various eukaryotic cells including CHO-K1; cited from earlier work. The source says: This peptide, well known for its pleiotropic activities in human, mediates its biological activities through the activation of three G protein-coupled receptors, named PAC1, VPAC1, and VPAC2[8]. […] The ...
Data set [1] has as its system Pseudomonas putida (KT2440). Conditions: 20 h.
Another data set has as its system Escherichia coli (JM109). Nature of the data set: MIC, CLSI microdilution. It counts as cell-based. The note with it: MHB, 37 °C, 20h, OD read-out, at least triplicate.
Data set [2] deals with Pseudomonas aeruginosa (PA14). The note with it: PA14, 20 h.
Data set [3] deals with Bacillus cereus (ATCC11778). Conditions: ATCC11778, 20 h.
Data set [4] deals with Serratia marcescens (ATCC14756). Conditions: ATCC14756, 20 h.
For data set [5], the system named is Burkholderia cenocepacia (J2315). Conditions: 20 h.
Data set [6] has as its system Actinobacillus pleuropneumoniae (4074). Conditions: 20 h.
Data set [7] deals with Staphylococcus aureus (ATCC6538#P). Conditions: ATCC6538, 20 h.
Data set [8] deals with Pseudomonas fluorescens (MF37). The note with it: 20 h.
For data set [9], the system named is various bacterial strains. The note with it: CLSI microdilution.
For data set [10], the system named is Staphylococcus aureus (Newman). The note with it: 20 h.
The subject of data set [11] is Bacillus circulans (LSPQ3543). The note with it: 20 h.
In the next data set the test system is Bacillus subtilis (PY79). The note with it: PY79, 20 h.
For another data set, the system named is Bacillus velezensis. The note with it: 20 h.
Data set [12] relates to Burkholderia thailendensis (ATCC700388). The note with it: CLSI microdilution, MHB, 37 °C, 20h, OD read-out; at least triplicate. In general terms: Dilution methods test growth across graded concentrations, often in twofold steps.
Data set [13] deals with Bacillus amyloliquefaciens (LMG22478). Conditions: LMG22478, 20 h.
The subject of the next data set is Red blood cells. Put plainly: Haemolytic activity. The class given is cell-based. The note with it: human red blood cells in PBS, 30 min or 3h, 37°C; at 45 μg/mL (PACAP38) or 37 μg/mL (PACAP(9–38)); absorbance 545 nm; 3 independent experiments in triplicate. As for the experimental part:
All experimental procedures were performed in accordance with regulations and ethical guidelines and approved by the institutional committee of the Institut National de la Recherche Scientifique-Institut Armand-Frappier. Blood from healthy human volunteers was collected into sodium citrate-buffered vacutainers. Blood donations were obtained from informed and consenting individuals according to institutionally approved procedures. Red blood cells were pelleted (700 x g; 10 min), washed three times with 9 volumes of PBS by centrifugation (700 x g; 10 min), and then resuspended in PBS. […] PBS-incubated red blood cells were considered as negative control and maximum lysis of erythrocytes was obtained by incubating the cells with 0.1% (v/v) Triton X-100. At the end of the incubation period, cells were pelleted (700 x g, 10 min) and 100 μL of each supernatant was used to evaluate the release of hemoglobin by measuring the absorbance at 545 nm. Results were obtained from 3 independent experiments performed in triplicate.

For another data set, the target named is T1, human VPAC2 receptor (Homo sapiens, UniProt P41587).
T1 construct: expressed in transfected cells
T1 sequence (P41587 24-438): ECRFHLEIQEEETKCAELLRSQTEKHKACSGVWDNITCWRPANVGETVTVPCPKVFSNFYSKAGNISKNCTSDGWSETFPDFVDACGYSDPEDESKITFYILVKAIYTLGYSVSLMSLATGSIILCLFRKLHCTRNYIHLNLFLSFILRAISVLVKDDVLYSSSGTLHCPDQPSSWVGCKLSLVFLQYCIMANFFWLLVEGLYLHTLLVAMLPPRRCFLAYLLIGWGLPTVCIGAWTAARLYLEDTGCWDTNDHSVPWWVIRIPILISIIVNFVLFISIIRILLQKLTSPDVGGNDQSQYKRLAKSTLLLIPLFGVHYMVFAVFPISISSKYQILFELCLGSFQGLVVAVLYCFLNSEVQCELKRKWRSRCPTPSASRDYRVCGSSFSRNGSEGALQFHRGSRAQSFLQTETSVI
Nature of the data set: Radioligand binding assay, 125I-Ac-PACAP27. Conditions: CHO cells expressing human VPAC2, 0.05 nM 125I-Ac-PACAP27, 2h, room temperature. The method, then:
(§1) Chinese hamster ovary (CHO) cells stably and individually expressing human receptor PAC1, VPAC1 or VPAC2 were grown in Ham’s F12 medium supplemented with 10% of fetal bovine serum (FBS), 2 mM L-glutamine, 100 UI/mL of penicillin and streptomycin (P/S) and 400 μg/mL of G418. The cell line was maintained at 37 °C in a humidified atmosphere of 5% CO2 and passages were performed by trypsinization when cells reached about 80% confluence.
(§2) Acetylated PACAP27 was radioiodinated using the chloramine-T oxidation technique and purified on a Sep-Pak C18 cartridge (Waters, Milford, MA, USA). Binding assays were performed using CHO cells stably transfected with the human PAC1, VPAC1 or VPAC2 receptor isoform. Cells were seeded at a density of 150,000 cells/well in 24-well plates. The next day, cells were washed with binding buffer (0.1% BSA, 25 mM Tris–HCl, 25 mM MgCl2, pH 7.4) for 10 min at room temperature. The solution was replaced with a fresh solution containing 0.05 nM of ^125I-Ac-PACAP27 and increasing concentrations of peptide (10^−14 to 10^-5M). After 2h of incubation at room temperature, cells were washed twice with the binding buffer and then lysed with sodium hydroxide (0.1 M). Cell-bound radioactivity was quantified using a γ-counter. Results were expressed as percentage of specific binding of ^125I-Ac-PACAP27.

A further data set addresses T2, human VPAC1 receptor (Homo sapiens, UniProt P32241).
T2 construct: expressed in transfected cells
Put plainly: Radioligand binding assay, 125I-Ac-PACAP27. As for the experimental part: as §1, §2

In the next data set the target is T3, human PAC1 receptor (Homo sapiens, UniProt P41586).
T3 construct: expressed in transfected cells
T3 sequence (P41586 21-468): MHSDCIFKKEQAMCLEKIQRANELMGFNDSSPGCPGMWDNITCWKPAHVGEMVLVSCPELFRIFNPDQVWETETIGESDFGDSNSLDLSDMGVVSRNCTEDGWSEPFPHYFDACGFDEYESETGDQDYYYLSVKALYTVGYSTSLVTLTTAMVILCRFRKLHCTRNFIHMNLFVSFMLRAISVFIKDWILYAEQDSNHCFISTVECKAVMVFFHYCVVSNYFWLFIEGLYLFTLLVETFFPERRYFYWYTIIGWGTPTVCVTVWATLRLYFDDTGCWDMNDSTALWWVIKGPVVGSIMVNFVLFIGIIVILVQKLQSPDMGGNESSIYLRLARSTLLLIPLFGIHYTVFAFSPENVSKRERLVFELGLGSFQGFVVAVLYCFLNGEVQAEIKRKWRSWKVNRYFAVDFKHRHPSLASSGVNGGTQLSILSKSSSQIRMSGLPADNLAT
Put plainly: Radioligand binding assay, 125I-Ac-PACAP27.

Where two headings read alike, the source gives them in different places. Where a SMILES comes first, the peptide text is derived from it. Where no end group is shown, it is not given here.

T2 sequence (P32241 31-457): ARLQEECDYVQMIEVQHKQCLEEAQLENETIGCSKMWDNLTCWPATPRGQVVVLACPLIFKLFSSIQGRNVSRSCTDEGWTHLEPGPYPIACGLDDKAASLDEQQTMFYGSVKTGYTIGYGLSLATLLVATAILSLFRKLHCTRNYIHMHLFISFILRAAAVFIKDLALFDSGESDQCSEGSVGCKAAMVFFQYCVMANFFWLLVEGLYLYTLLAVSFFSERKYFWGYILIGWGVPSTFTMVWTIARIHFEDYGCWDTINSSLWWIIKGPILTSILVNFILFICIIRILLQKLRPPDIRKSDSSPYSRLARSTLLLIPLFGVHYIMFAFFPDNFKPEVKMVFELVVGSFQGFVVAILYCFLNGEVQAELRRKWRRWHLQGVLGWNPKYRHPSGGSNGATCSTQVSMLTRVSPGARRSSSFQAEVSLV

For “[Arg^17]PACAP(11–38) (SRYRKQRAVKKYLAAVLGKRYKQRVKNK; ends and bridges not checked; UniProt P18509 142-169, looked up, variant M17R)”, the Cytotoxic effect entry with CHO-K1 is given as “no cytotoxic effect”.
Consider `CC[C@H](C)[C@H](NC(=O)CNC(=O)[C@H](CC(=O)O)NC(=O)[C@H](CO)NC(=O)[C@@H](N)Cc1c[nH]cn1)C(=O)N1Cc2ccccc2C[C@H]1C(=O)N[C@H](C(=O)N[C@@H](CC(=O)O)C(=O)N[C@@H](CO)C(=O)N[C@@H](Cc1ccc(O)cc1)C(=O)N[C@@H](CO)C(=O)N[C@@H](CCCNC(=N)N)C(=O)N[C@@H](Cc1ccc(O)cc1)C(=O)N[C@@H](CCCNC(=N)N)C(=O)N[C@@H](CCCCN)C(=O)N[C@@H](CCC(N)=O)C(=O)N[C@@H](CCSC)C(=O)N[C@@H](C)C(=O)N[C@H](C(=O)N[C@@H](CCCCN)C(=O)N[C@@H](CCCCN)C(=O)N[C@@H](Cc1ccc(O)cc1)C(=O)N[C@@H](CC(C)C)C(=O)N[C@@H](C)C(=O)N[C@@H](C)C(=O)N[C@H](C(=O)N[C@@H](CC(C)C)C(N)=O)C(C)C)C(C)C)[C@@H](C)O` [compound 8, [Tic^6]PACAP27], for which the “MIC, Pseudomonas putida (KT2440)” value in data set [1] was greater than 160 µg/mL. Also, the “MIC, Escherichia coli (JM109)” value in the data set with Escherichia coli (JM109) is greater than 160 µg/mL. In addition, the “MIC, Pseudomonas aeruginosa (PA14)” value in [2] is greater than 160 µg/mL. In addition, the “MIC, Bacillus cereus (ATCC11778)” value in data set [3] was greater than 160 µg/mL. Moreover, the “MIC, Serratia marcescens (ATCC14756)” value in data set [4] was greater than 160 µg/mL. The “MIC, Burkholderia cenocepacia (J2315)” value in data set [5] is greater than 160 µg/mL. For the same molecule, in data set [6], the “MIC, Actinobacillus pleuropneumoniae” value is greater than 160 µg/mL. In addition, in [7], the “MIC, Staphylococcus aureus (ATCC6538#P)” value is greater than 160 µg/mL. The “MIC, Pseudomonas fluorescens (MF37)” value in [8] is greater than 160 µg/mL. For the same molecule, the “MIC (ability to reduce bacterial growth, tested strains)” value in [9] is greater than 160 µg/mL. The “MIC, Staphylococcus aureus (Newman)” value in data set [10] is greater than 160 µg/mL. Also, in data set [11], the “MIC, Bacillus circulans (LSPQ3543)” value was greater than 160 µg/mL. Besides, in the data set with Bacillus subtilis (PY79), the “MIC, Bacillus subtilis (PY79)” value was greater than 160 µg/mL. Also, in the data set with Bacillus velezensis, the “MIC, Bacillus velezensis” value is greater than 160 µg/mL. For the same molecule, the “MIC, Burkholderia thailendensis (ATCC700388)” value in data set [12] was greater than 160 µg/mL. In data set [13], the “MIC, Bacillus amyloliquefaciens” value is greater than 160 µg/mL.
Regarding `CSCC[C@H](NC(=O)[C@H](CCC(N)=O)NC(=O)[C@H](CCCCN)NC(=O)[C@H](CCCN=C(N)N)NC(=O)[C@H](Cc1ccc(O)cc1)NC(=O)[C@H](CCCN=C(N)N)NC(=O)[C@H](CO)NC(=O)[C@H](Cc1ccc(O)cc1)NC(=O)[C@@H](N)CO)C(=O)N[C@@H](C)C(=O)N[C@H](C(=O)N[C@@H](CCCCN)C(=O)N[C@@H](CCCCN)C(=O)N[C@@H](Cc1ccc(O)cc1)C(=O)N[C@@H](CC(C)C)C(=O)N[C@@H](C)C(=O)N[C@@H](C)C(=O)N[C@H](C(=O)N[C@@H](CC(C)C)C(=O)NCC(=O)N[C@@H](CCCCN)C(=O)N[C@@H](CCCN=C(N)N)C(=O)N[C@@H](Cc1ccc(O)cc1)C(=O)N[C@@H](CCCCN)C(=O)N[C@@H](CCC(N)=O)C(=O)N[C@@H](CCCN=C(N)N)C(=O)N[C@H](C(=O)N[C@@H](CCCCN)C(=O)N[C@@H](CC(N)=O)C(=O)N[C@@H](CCCCN)C(N)=O)C(C)C)C(C)C)C(C)C` [compound 10, PACAP(9–38)] (H-SYSRYRKQMAVKKYLAAVLGKRYKQRVKNK-NH2), the Haemolytic activity result with Red blood cells is given as “do not exert a very significant haemolytic activity”. For the same molecule, the IC50 at human VPAC2 receptor (95% confidence limits in parentheses) was greater than 1000 nM; on human VPAC2 receptor (read-out: VPAC2 pIC50 (converted)), 1700 nM; at human VPAC1 receptor, greater than 1000 nM; at human VPAC1 receptor (VPAC1 pIC50, CHO cells expressing human VPAC1, 0.05 nM 125I-Ac-PACAP27, 2h, room temperature), 5130 nM; at human PAC1 receptor, greater than 1000 nM; on human PAC1 receptor (PAC1 pIC50, CHO cells expressing human PAC1, 0.05 nM 125I-Ac-PACAP27, 2h, room temperature), 1350 nM.
